Assay results reported in BigSolDB 2.1.

Which solubility (mole fraction) (in acetone, 278.15 K) does the source give for `N=C(N)N.O=[N+]([O-])O` here?
Its solubility (mole fraction) is 0.0003.

What about the solubility (mole fraction) (in acetone, 283.15 K) of the same compound?
Its solubility (mole fraction) is 0.0005.

What about the solubility (mole fraction) (in acetone, 288.15 K) of the same compound?
Its solubility (mole fraction) is 0.0009.

What about the solubility (mole fraction) (in acetone, 293.15 K) of the same compound?
Its solubility (mole fraction) is 0.0016.

What about the solubility (mole fraction) (in acetone, 298.15 K) of the same compound?
The solubility (mole fraction) was 0.0029.

And the solubility (mole fraction) (in acetone, 303.15 K)?
The solubility (mole fraction) was 0.0052.

And the solubility (mole fraction) (in acetone, 308.15 K)?
Its solubility (mole fraction) is 0.0092.

What about the solubility (mole fraction) (in acetone, 313.15 K) of the same compound?
Its solubility (mole fraction) is 0.0158.

And the solubility (mole fraction) (in acetone, 323.15 K)?
Its solubility (mole fraction) is 0.0503.

What about the solubility (mole fraction) (in ethanol, 278.05 K) of the same compound?
Its solubility (mole fraction) is 0.003.

What about the solubility (mole fraction) (in ethanol, 283.15 K) of the same compound?
The solubility (mole fraction) was 0.0037.

What about the solubility (mole fraction) (in ethanol, 288.35 K) of the same compound?
Its solubility (mole fraction) is 0.0043.

And the solubility (mole fraction) (in ethanol, 293.15 K)?
The solubility (mole fraction) was 0.0051.

And the solubility (mole fraction) (in ethanol, 298.25 K)?
Its solubility (mole fraction) is 0.0062.

And the solubility (mole fraction) (in ethanol, 303.25 K)?
The solubility (mole fraction) was 0.007.

And the solubility (mole fraction) (in ethanol, 308.25 K)?
The solubility (mole fraction) was 0.0081.

What about the solubility (mole fraction) (in ethanol, 313.05 K) of the same compound?
The solubility (mole fraction) was 0.0094.

What about the solubility (mole fraction) (in ethanol, 318.05 K) of the same compound?
Its solubility (mole fraction) is 0.0108.

And the solubility (mole fraction) (in ethanol, 323.25 K)?
The solubility (mole fraction) was 0.0124.

What about the solubility (mole fraction) (in ethanol, 328.35 K) of the same compound?
Its solubility (mole fraction) is 0.0143.

And the solubility (mole fraction) (in methanol, 278.25 K)?
The solubility (mole fraction) was 0.0063.

And the solubility (mole fraction) (in methanol, 283.25 K)?
The solubility (mole fraction) was 0.0075.

And the solubility (mole fraction) (in methanol, 288.25 K)?
The solubility (mole fraction) was 0.0092.

And the solubility (mole fraction) (in methanol, 293.25 K)?
The solubility (mole fraction) was 0.0107.

And the solubility (mole fraction) (in methanol, 298.35 K)?
Its solubility (mole fraction) is 0.0126.

What about the solubility (mole fraction) (in methanol, 303.15 K) of the same compound?
Its solubility (mole fraction) is 0.0148.

What about the solubility (mole fraction) (in methanol, 308.35 K) of the same compound?
Its solubility (mole fraction) is 0.0174.

And the solubility (mole fraction) (in methanol, 313.15 K)?
Its solubility (mole fraction) is 0.0198.

What about the solubility (mole fraction) (in methanol, 318.25 K) of the same compound?
The solubility (mole fraction) was 0.0227.

And the solubility (mole fraction) (in methanol, 323.35 K)?
Its solubility (mole fraction) is 0.0264.

And the solubility (mole fraction) (in methanol, 328.05 K)?
Its solubility (mole fraction) is 0.0305.

What about the solubility (mole fraction) (in n-propanol, 278.25 K) of the same compound?
The solubility (mole fraction) was 0.0009.

And the solubility (mole fraction) (in n-propanol, 283.25 K)?
Its solubility (mole fraction) is 0.0013.

And the solubility (mole fraction) (in n-propanol, 288.25 K)?
Its solubility (mole fraction) is 0.0017.

And the solubility (mole fraction) (in n-propanol, 293.15 K)?
Its solubility (mole fraction) is 0.002.

What about the solubility (mole fraction) (in n-propanol, 298.35 K) of the same compound?
Its solubility (mole fraction) is 0.0029.

And the solubility (mole fraction) (in n-propanol, 303.15 K)?
The solubility (mole fraction) was 0.0041.

What about the solubility (mole fraction) (in n-propanol, 308.35 K) of the same compound?
The solubility (mole fraction) was 0.0048.

And the solubility (mole fraction) (in n-propanol, 313.15 K)?
Its solubility (mole fraction) is 0.0061.

And the solubility (mole fraction) (in n-propanol, 318.25 K)?
Its solubility (mole fraction) is 0.0077.

What about the solubility (mole fraction) (in n-propanol, 323.15 K) of the same compound?
The solubility (mole fraction) was 0.0092.

And the solubility (mole fraction) (in n-propanol, 328.05 K)?
The solubility (mole fraction) was 0.012.

What about the solubility (mole fraction) (in water, 278.25 K) of the same compound?
The solubility (mole fraction) was 0.009.

And the solubility (mole fraction) (in water, 283.35 K)?
The solubility (mole fraction) was 0.0112.

What about the solubility (mole fraction) (in water, 288.25 K) of the same compound?
Its solubility (mole fraction) is 0.0136.

And the solubility (mole fraction) (in water, 292.95 K)?
The solubility (mole fraction) was 0.0157.

And the solubility (mole fraction) (in water, 298.25 K)?
The solubility (mole fraction) was 0.019.

And the solubility (mole fraction) (in water, 303.15 K)?
The solubility (mole fraction) was 0.0222.

What about the solubility (mole fraction) (in water, 308.35 K) of the same compound?
Its solubility (mole fraction) is 0.0262.

What about the solubility (mole fraction) (in water, 313.05 K) of the same compound?
The solubility (mole fraction) was 0.0302.

And the solubility (mole fraction) (in water, 318.25 K)?
Its solubility (mole fraction) is 0.0349.

What about the solubility (mole fraction) (in water, 323.25 K) of the same compound?
The solubility (mole fraction) was 0.0401.

What about the solubility (mole fraction) (in water, 328.35 K) of the same compound?
Its solubility (mole fraction) is 0.0463.

What about the solubility (mole fraction) (in water, 332.85 K) of the same compound?
The solubility (mole fraction) was 0.0511.
